Results on 29 molecules are retold here after ChEMBL document CHEMBL1201862, “PubChem BioAssay data set” (2004).

In test [1] the test system is H9c2. As to the kind of experiment: cells. Format: functional, cell-based. To be noted: Rattus norvegicus, H9c2, Myocardium.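 Further: confirmatory concentration-response retest of ultra-high-throughput screening hits for modulation of myocardial damage; cell death induced by hydrogen peroxide oxidative stress; compound pretreatment for 60 min then peroxide exposure for 2 h; potency is for protecting the cells against peroxide damage rather than for killing them.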
Test [2] is described as follows: cells. Format: functional, cell-based.
A short description of test [3]: cells. Format: functional, cell-based. This is another data set of the same source.
The target of test [4] is Cytochrome P450 2D6 (Homo sapiens, UniProt P10635).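 Further: CYP2D6 member of a cytochrome P450 panel assay.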
Sequence of Cytochrome P450 2D6 (P10635 whole entry): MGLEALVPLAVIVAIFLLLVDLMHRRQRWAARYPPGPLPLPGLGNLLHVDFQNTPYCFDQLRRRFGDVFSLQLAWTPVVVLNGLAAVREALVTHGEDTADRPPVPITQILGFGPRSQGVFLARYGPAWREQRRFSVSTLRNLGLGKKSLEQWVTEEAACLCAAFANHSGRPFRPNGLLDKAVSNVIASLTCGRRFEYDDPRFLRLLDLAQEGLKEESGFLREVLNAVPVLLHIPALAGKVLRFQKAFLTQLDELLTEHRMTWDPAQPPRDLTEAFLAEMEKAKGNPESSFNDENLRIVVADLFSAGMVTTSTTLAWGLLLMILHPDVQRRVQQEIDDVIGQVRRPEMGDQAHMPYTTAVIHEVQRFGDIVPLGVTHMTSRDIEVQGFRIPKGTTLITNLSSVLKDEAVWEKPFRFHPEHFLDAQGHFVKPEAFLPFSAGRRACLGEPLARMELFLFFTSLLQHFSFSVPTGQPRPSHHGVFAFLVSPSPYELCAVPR
The target of test [5] is Cytochrome P450 3A4 (Homo sapiens, UniProt P08684).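 Further: CYP3A4 tested as one member of a cytochrome P450 panel screen.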
Sequence of Cytochrome P450 3A4 (P08684 whole entry): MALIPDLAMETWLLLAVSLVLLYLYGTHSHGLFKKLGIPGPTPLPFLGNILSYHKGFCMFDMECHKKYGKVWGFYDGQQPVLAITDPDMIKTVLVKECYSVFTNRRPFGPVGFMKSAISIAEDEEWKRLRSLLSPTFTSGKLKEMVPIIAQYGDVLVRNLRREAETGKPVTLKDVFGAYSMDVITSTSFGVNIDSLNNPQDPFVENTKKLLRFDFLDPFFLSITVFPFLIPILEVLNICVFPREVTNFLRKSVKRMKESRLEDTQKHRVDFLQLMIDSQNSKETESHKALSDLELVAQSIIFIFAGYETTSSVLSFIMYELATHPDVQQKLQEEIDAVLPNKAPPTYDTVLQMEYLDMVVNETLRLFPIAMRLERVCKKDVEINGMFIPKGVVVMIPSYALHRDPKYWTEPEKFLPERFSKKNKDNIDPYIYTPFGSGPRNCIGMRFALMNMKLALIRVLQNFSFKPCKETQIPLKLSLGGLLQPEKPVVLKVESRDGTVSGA
In test [6] the target is T1, Replicative DNA helicase DnaB (Mycobacterium tuberculosis, UniProt P9WMR3).
T1 sequence (P9WMR3 whole entry): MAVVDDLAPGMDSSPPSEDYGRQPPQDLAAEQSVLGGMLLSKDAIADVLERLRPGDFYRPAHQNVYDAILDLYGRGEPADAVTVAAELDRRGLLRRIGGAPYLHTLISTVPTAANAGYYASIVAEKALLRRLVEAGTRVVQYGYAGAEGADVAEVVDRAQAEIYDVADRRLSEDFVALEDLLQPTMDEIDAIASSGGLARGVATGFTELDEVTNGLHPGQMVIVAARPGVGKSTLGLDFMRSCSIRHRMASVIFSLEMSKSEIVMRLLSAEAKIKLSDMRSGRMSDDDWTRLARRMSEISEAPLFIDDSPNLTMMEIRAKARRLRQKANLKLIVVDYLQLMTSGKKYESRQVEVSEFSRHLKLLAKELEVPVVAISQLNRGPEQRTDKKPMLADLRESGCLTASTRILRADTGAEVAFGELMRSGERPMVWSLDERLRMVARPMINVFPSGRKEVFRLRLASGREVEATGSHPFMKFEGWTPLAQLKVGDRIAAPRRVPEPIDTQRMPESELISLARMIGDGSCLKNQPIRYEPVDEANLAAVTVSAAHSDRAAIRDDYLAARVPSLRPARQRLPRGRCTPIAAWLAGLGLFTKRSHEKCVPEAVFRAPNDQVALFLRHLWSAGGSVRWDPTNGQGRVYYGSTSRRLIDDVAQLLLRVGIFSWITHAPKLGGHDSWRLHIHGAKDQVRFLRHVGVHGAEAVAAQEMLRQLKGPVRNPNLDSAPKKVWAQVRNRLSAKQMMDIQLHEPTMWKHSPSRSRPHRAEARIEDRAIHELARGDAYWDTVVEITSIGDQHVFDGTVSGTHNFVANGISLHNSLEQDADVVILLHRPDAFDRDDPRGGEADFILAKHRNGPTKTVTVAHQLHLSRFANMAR
The experiment in a line: DnaB intein splicing inhibitors, dose response, biochemical, cell-free fluorescence (AID 449749). The format is functional.

Test [7] has as its target T2, Protein RecA (Mycobacterium tuberculosis, UniProt P9WHJ3).
T2 sequence (P9WHJ3 whole entry): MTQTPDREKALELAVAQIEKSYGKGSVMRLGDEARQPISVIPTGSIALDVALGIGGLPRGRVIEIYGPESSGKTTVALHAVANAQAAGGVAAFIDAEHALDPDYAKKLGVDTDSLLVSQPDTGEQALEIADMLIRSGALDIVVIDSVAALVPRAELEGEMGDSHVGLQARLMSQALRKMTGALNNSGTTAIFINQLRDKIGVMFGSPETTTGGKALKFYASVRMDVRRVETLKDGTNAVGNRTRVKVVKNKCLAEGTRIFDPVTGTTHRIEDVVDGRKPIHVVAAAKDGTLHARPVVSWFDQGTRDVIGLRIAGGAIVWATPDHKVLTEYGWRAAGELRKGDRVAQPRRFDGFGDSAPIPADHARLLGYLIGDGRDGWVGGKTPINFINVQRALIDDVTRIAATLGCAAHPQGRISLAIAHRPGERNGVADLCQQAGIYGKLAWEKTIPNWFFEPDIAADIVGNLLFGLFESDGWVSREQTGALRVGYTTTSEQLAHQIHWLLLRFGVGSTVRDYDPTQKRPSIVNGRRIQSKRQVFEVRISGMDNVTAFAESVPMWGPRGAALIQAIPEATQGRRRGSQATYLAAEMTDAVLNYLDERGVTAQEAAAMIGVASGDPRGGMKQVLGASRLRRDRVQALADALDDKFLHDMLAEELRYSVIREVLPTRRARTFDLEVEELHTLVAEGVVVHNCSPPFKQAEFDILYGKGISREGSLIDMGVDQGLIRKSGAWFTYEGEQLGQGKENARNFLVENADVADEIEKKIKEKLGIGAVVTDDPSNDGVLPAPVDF
As to the kind of experiment: Fluorescence Cell-Free Homogeneous Dose Retest to Identify Inhibitors of RecA-Intein Splicing Activity. [Related pubchem assays (depositor defined):AID2097, AID2223, AID489010, AID492950]. The format is functional.

Test [8] has as its target T3, Ubiquitin-conjugating enzyme E2 N (Homo sapiens, UniProt P61088).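 Further: Dose-response confirmation in a TR-FRET assay detecting UBC13-driven polyubiquitin chain formation, inhibition measured.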
T3 sequence (P61088 whole entry): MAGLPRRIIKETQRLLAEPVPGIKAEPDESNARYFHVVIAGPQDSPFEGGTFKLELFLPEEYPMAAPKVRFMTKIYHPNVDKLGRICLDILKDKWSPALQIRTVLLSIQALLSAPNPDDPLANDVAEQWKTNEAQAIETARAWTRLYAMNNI
Format: functional.

Test [9] has as its system INS1. The experiment in a line: INS-1E survival protection against cytokine death – cell-based, luminescence, retest, dose response (AID 449756).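 Further: cell death triggered by IL-1 beta plus TNF-alpha plus IFN-gamma mixture; protective hits raise ATP signal compared with cytokine alone wells.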 The following applies: Rattus norvegicus. Format: functional.
A short description of test [10]: microbe, parasite or virus in culture. Format: functional. To be noted: Mycobacterium tuberculosis.
Test [11] addresses T4, Cytochrome P450 1A2 (Homo sapiens, UniProt P05177).
T4 sequence (P05177 whole entry): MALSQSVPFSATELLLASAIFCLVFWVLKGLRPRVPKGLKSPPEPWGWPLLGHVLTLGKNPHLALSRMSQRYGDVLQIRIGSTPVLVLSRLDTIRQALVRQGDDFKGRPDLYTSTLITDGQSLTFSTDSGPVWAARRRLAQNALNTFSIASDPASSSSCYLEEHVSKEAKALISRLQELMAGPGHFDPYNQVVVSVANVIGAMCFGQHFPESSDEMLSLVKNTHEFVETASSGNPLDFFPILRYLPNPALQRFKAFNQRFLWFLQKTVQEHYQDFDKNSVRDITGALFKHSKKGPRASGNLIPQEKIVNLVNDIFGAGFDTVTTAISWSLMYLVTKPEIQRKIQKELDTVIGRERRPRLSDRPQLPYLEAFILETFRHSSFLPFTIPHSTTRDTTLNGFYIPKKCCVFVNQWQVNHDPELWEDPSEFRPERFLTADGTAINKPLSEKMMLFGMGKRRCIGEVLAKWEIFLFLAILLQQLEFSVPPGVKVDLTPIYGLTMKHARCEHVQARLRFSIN

Test [12] deals with Cytochrome P450 2C19 (Homo sapiens, UniProt P33261). The experiment in a line: Cytochrome panel assay with activity outcomes. Panel member name: p450-cyp2c19 Compounds with AC50 equal or less than 10 uM are considered active. The format is functional. The following applies: read-out: AC50.
Sequence of Cytochrome P450 2C19 (P33261 whole entry): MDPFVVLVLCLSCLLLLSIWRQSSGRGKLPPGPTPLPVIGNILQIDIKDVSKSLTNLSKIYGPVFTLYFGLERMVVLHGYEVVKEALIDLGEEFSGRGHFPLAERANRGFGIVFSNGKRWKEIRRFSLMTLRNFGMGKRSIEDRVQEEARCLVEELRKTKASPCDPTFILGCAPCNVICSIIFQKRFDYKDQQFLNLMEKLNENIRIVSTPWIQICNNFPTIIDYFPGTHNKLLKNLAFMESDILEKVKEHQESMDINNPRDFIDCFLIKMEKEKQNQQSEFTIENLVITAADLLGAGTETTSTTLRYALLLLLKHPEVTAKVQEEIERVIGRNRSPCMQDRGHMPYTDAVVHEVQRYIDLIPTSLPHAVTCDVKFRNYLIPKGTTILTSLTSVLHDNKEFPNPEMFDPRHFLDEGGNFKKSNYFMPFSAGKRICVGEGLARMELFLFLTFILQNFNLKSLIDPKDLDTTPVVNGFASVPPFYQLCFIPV

Calls of active or inactive are those of the source.

As a reminder, the IC50 is the point on the concentration scale where inhibition reaches its midpoint. As for `CN1CCN(Cc2nc(O)c3ccccc3n2)CC1`, the IC50 in test [1] is 24 µM (active).

Turning to `O=C(CSc1nnc(Cc2cccs2)n1CCc1ccccc1)N1CCCc2ccccc21`, the IC50 in [1] was > 79 µM (inactive).

Take `NC(=O)c1nsc(C(=O)N(CCc2ccccc2)C(C(=O)NC2CCCC2)c2ccco2)c1N` (stereo unspecified): the IC50 in [1] is > 79 µM (inactive).

Usually EC50 stands for the concentration that produces a half-maximal response. As to `COc1ccc(NC(=O)CNC(=O)Cc2cccc3ccccc23)c(OC)c1`, the EC50 in test [2] and in test [3] was > 350 µM (not active) in each case.

The AC50 is the midpoint of the concentration-response curve, whichever way the signal moves. On to `CC(=O)N1CCC2(CCCN(c3ncccn3)C2)CC1`, for which the AC50 in test [4] is 31.6 µM (inconclusive).

As for `COc1cc(SC)ccc1C(=O)Nc1ccc(C)cc1C`, the EC50 in test [2] is > 350 µM (not active); in test [3], 5.81 µM (active).

In the case of `Cc1ccc(-n2nc(C)c3c2OC(N)=C(C#N)C3c2ccco2)cc1` (stereo unspecified), the AC50 in test [5] is 17.8 µM (inconclusive); in [6], 35.1 µM (inconclusive). In test [7], the EC50 was 6.22 µM (inconclusive).

Consider `CC(C)(C)NC(=O)COC(=O)c1ccc(Cl)nc1`, for which the concentration for a half-maximal effect (EC50) in test [2] and in test [3] was > 350 µM (not active) in each case.

Consider `N#Cc1ccc(CN2CCC3(CC2)CCN(C(=O)c2cccc(F)c2)CC3)cc1`, for which, in test [4], the AC50 was 12.6 µM (inconclusive).

Regarding `Cc1cc(C)cc(N(CC(=O)NCCSc2ccccn2)S(=O)(=O)c2ccccc2)c1`, the AC50 in test [4] is 11.2 µM (inconclusive).

For the molecule `COc1ccc(NC(=S)N2CCN(C(=O)c3ccccc3)CC2)cc1`, the EC50 in [2] and in test [3] was > 350 µM (not active) each time.

As for `O=C(CN1C(=O)S/C(=C\C=C\c2ccccc2)C1=O)Nc1ccc(C(=O)O)cc1`, the AC50 in test [6] was 177 µM (active). Besides, the EC50 in test [7] is > 380 µM (inactive).

Consider `CCOc1ccc(N(C(=O)c2snc(C(N)=O)c2N)C(C(=O)NC2CCCC2)C(C)C)cc1` (stereo unspecified), for which the IC50 in [8] is > 20 µM (inactive).

Take `CCCNC(=O)c1c(N)n(-c2cccc(OC)c2)c2nc3ccccc3nc12`: the AC50 in [9] was 36.8 µM (active). Besides, the IC50 in [1] was 28.5 µM (active).

Consider `COc1cc2c(cc1OC)C1(Nc3c-2c(-c2ccccc2)nn3-c2ccccc2)C(=O)Nc2ccccc21` (stereo unspecified), for which the CC50 in [10] is 10.4 µM (active).

For `Cn1ncc(Cl)c1C(=O)Nc1nc2ccc(Cl)cc2s1`, the values for the EC50 in test [2] and in test [3] were > 350 µM (not active) and 0.85 µM (active), respectively.

On to `COc1cc(C(c2c(C)n[nH]c2O)c2c(C)n[nH]c2O)cc(Cl)c1O`, for which the AC50 in test [6] is 2.6 µM (active). The EC50 in [7] is 0.453 µM (active).

In the case of `CCC(C)NC(=O)Cn1cnc2sc(C)cc2c1=O` (stereo unspecified), the values for the AC50 in test [4] and in [11] were 25.1 µM (inconclusive) and 6.31 µM (inconclusive), respectively.

`C=CCn1c(Cc2cccs2)nnc1SCC(=O)Nc1ccc(C(=O)OCC)cc1`: in test [10], the CC50 was > 40 µM (active).

Consider `CCNc1ncc2nc(-c3ccc(F)cc3)c(=O)n(-c3ccc(OC)cc3)c2n1`, for which the values for the AC50 in test [5], in test [4] and in test [11] were 20 µM (inconclusive), 0.158 µM (inconclusive) and 6.31 µM (inconclusive), respectively.

Consider `O=C(CCc1nc(O)c2ccccc2n1)N1CCN(c2ccc(F)cc2)CC1`, for which the IC50 in test [1] was > 79 µM (inactive).

On to `Cc1cc(C)cc(C(=O)Nc2ccc(NC(=O)c3cccs3)cc2)c1`, for which, in [1], the IC50 is > 79 µM (inactive).

`CC1(C)CC2(CCO1)OC(=O)CC2C(=O)NCCc1ccccc1` (stereo unspecified): the AC50 was 25.1 µM (inconclusive) in [12], 28.2 µM (inconclusive) in test [5] and 22.4 µM (inconclusive) in test [4].

In the case of `O=C(C(=O)N1CCOCC1)c1cn(Cc2ccccc2)c2ccccc12`, in [8], the IC50 is > 20 µM (inactive).

Take `Cc1nc2ccccc2c2c1C(=O)N(C)C2=O`: the AC50 in test [6] is 4.71 µM (active). Also, in test [7], the EC50 was 0.794 µM (active).

In the case of `CC(C)C1Nc2ccc(C(=O)N3CCN(c4ccccn4)CC3)cc2NC1=O` (stereo unspecified), in test [1], the IC50 is 21.2 µM (active).

As for `O=C(N/N=C/c1ccc2c(c1)OCO2)c1ccc(NC(=O)c2ccccc2Cl)cc1`, the IC50 in [1] is 9.19 µM (active).

Turning to `Oc1c(Cl)cc(Cl)cc1/C=N/c1ccc(N2CCOCC2)cc1`, the IC50 in test [1] was > 79 µM (inactive).

Regarding `CCOC(=O)C1=C(c2ccccc2)N=c2s/c(=C\c3ccco3)c(=O)n2C1c1cccs1` (stereo unspecified), the AC50 is 22.4 µM (inconclusive) in [5] and 15.8 µM (inconclusive) in [4].
